Consider four compounds from paper PMC9754190, “Human CYP2B6 produces oxylipins from polyunsaturated fatty acids and reduces diet-induced obesity” (PLOS ONE, 2022).

Structures are written as SMILES.

Experiment [1] has as its target T1, CYP2B6 (Homo sapiens, UniProt P20813).
T1 sequence (P20813 1-491): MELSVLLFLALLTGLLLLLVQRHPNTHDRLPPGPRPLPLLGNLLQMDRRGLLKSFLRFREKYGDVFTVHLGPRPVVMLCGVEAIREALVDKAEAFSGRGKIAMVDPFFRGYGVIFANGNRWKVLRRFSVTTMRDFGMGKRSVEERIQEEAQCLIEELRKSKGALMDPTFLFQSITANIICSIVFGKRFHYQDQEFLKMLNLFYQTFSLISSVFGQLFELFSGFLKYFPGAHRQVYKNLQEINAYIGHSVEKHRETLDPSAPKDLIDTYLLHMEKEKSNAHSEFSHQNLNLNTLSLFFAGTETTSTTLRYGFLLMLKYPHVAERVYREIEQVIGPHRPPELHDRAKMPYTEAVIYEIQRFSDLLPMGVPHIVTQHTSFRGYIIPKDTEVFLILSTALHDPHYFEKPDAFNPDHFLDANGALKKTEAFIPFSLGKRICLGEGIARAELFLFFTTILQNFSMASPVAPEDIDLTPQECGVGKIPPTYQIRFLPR
As to the kind of experiment: Vivid CYP2B6 Blue fluorescence inhibition assay with recombinant baculosomes. Type of experiment: biochemical. Further details: CYP2B6-containing baculosomes.

For experiment [2], the target named is T1, CYP2B6. As to the kind of experiment: biochemical.

Turning to `CC/C=C\C/C=C\C/C=C\C/C=C\C/C=C\C/C=C\CCC(=O)O` [DHA, docosahexaenoic acid], in experiment [1], the IC50 was 2.4 µM.
Still for that read-out and setting: in the case of `CCCCC/C=C\C/C=C\C/C=C\C/C=C\CCCC(=O)O` [AA, arachidonic acid] it was 1.51 µM.
On to `CC/C=C\C/C=C\C/C=C\CCCCCCCC(=O)O` [ALA, α-linolenic acid], for which half-maximal inhibition in experiment [2] (IC50) was put at 4.48 µM.
`CCCCC/C=C\C/C=C\CCCCCCCC(=O)O` [LA, linoleic acid]: the IC50 in experiment [1] was found to be 2.9 µM.
